Source: patent US20150072933A1, “NOVEL SEQUENCES FOR THE CONTROL OF REPRODUCTION IN FISH” (Yissum Research Development Company of the Hebrew …, priority 2011, published 2015)
“Also recorded” adds a separate entry of the source. *1 amine or outer side, *2 acyl side, *3 side chain or, on linkers, in order; H or OH if unused. Where a SMILES comes first, the peptide text is derived from it. [ ]: non-standard residue; d: D form. NMeF = CN[C@@H](Cc1ccccc1)C(=O)O; Suc = O=C(CCC(=O)[*:2])[*:1]; NMeV = CN[C@H](C(=O)O)C(C)C

What was measured:
[1] = system: NK-2; conditions: GPI; cited from earlier work
[2] = system: sexually mature female zebrafish; assay: In vivo effect of NKBs in zebrafish: LH secretion after intraperitoneal injection; conditions: single intraperitoneal injection, 20 pmol/g body weight, sexually mature female zebrafish
Experimental: In vivo studies involved administering NKBa, NKBb or NKF and the analogues thereof, denoted by SEQ ID NO. 40-42 and 44-46, respectively to immature fish (20 fish/treatment). The circulating levels of E2, 11KT, LH and FSH were determined prior to hormonal manipulations, in order to confirm that these fish were indeed sexually immature. The fish were injected intramuscularly (i.m.) or intraperitonealy (i.p.) at various doses. Adult female zebra fish were injected intraperitoneally with 20 pmol/g body weight. Control fish were injected with saline. Plasma samples were collected at time 0, and specific times after the administration of the peptide/s, to determine the levels of E2, 11KT, LH and FSH.
To further characterize the role of the NKB/NKBR system in fish reproduction the in vivo biological function of zebrafish NKB peptides was next examined.

[3] = system: zfTac3rb; assay: Receptor transactivation assay, CRE-Luc reporter (PKA activation), COS-7 cells expressing zfTac3rb; assay type: cell-based, zebrafish; conditions: mean ± SEM
Experimental: (§1) In order to study the signaling pathways of the novel zebrafish NKBs, the entire coding regions of zftac3ra (denoted by SEQ ID NO:6) or zftac3rb (denoted by SEQ ID NO:7), or the cDNA clone for human NK3R (obtained from the Missouri S&T cDNA Resource Center, were inserted into pcDNA3.1 (Invitrogen). The luciferase assay was conducted according to Biran et al., 2008 [4] COS-7 cells were grown in DMEM supplemented with 10% FBS, 1% glutamine, 100 U/ml penicillin, and […] streptomycin (Biological Industries) under 5% CO2 until confluent. Cotransfection of either pc-zftac3ra, pc-zftac3rb or pc-Htac3r (at 3 μg/plate), a reporter plasmid (at 2 μg/plate), and pCMV-β-galactosidase (at 1 μg/plate) was carried out with FuGENE 6.0 reagent (Roche). The cells were serum starved for 36 h, stimulated with vehicle or various concentrations of either human (Sigma) or zebrafish NKBs for 6 h, and then harvested and analyzed. Lysates prepared from the harvested cells were assayed for both luciferase activity and β-galactosidase activity, which was used as an internal standard to normalize the luciferase activity directed by the test plasmid. Transfection experiments were performed in triplicate with three independently isolated sets. Protein structure prediction of zebrafish NKBa, NKBb or NKF were performed on I-Tasser servers.
(§2) The response, binding selectivity and signal transduction pathways of the novel tachykinin receptors to their agonists were evaluated by functional expression analysis, using COS-7 cells.
(§3) The NKB analogues (i.e. the NKBa-analog, NKBb-analog and NKF-analog, as denoted by SEQ ID NO. 44-46) were first analyzed in comparison to their native forms in a transactivation assay, using reporter genes for specific signal transduction pathways. To validate the specificity of the serum-responsive element (SRE)-Luc and cAMP-responsive element (CRE)-Luc reporter systems, specific activators for PLC/PKC and AC/PKA signaling pathways were used in control experiments.
(§4) Thus, the ability of the three novel piscine peptides (namely, NKBa, NKBb and NKF, denoted by SEQ ID NO.40, 41 and 42), as well as the ability of the three analogous agonistic peptides, namely, NKBa-analog, NKBb-analog and NKF-analog, to differentially activate the different tac3 receptors, using SRE as a reporter gene that follows PKC activation and CRE as a reporter gene for the PKA pathway, was tested. Human NK3R (human NKB receptor) and human NKB served as controls.

[4] = system: zfTac3rb; assay: Receptor transactivation assay, SRE-Luc reporter (PKC activation), COS-7 cells expressing zfTac3rb; assay type: cell-based, zebrafish; conditions: mean ± SEM
Experimental: as §1, §2, §3, §4

[5] = system: zfTac3ra; assay: Receptor transactivation assay, SRE-Luc reporter (PKC activation), COS-7 cells expressing zfTac3ra; assay type: cell-based, zebrafish; conditions: mean ± SEM
Experimental: as §1, §2, §3, §4

[6] = system: zfTac3ra; assay: Receptor transactivation assay, CRE-Luc reporter (PKA activation), COS-7 cells expressing zfTac3ra; assay type: cell-based, zebrafish; conditions: mean ± SEM
Experimental: as §1, §2, §3, §4

[7] = system: Tilapia pituitary cells; assay: Gonadotropin release from tilapia pituitary dispersed cells; assay type: cell-based; conditions: 10 nM, 4 hr
Experimental: Tilapia pituitary cells were subjected to enzymatic dispersion. Pituitary cells were stimulated with 10 nM of the NKBa or NKF analogue, denoted by SEQ ID NO.44 and SEQ ID NO.46, respectively, for 4 hr, when the medium was collected. […] Stimulation of tilapia pituitary cells with GnRH at [10 nM] was used as a control.

[8] = system: Juvenile Tilapia; assay: Gonadotropin release in vivo from juvenile tilapia (plasma LH and FSH by ELISA); set-up: species or system Tilapia (Oreochromis niloticus); conditions: for FSH secretion / LH secretion: Juvenile Tilapia, injected at 0.5 or 5 μg/Kg BW
Experimental: Tilapia females (two-months old) were injected with the NKBa analogue denoted by SEQ ID NO.44 or the NKF analogue denoted by SEQ ID NO.46 at 0.5 or 5 μg/kg body weight (BW). Blood was withdrawn from the caudal vein and plasma Luteinizing hormone (LH) and Follicle-stimulating hormone (FSH) levels were measured using a homologous sensitive enzyme-linked immunosorbent assay (ELISA), as described by Aizen et al. 2007 [33].

[9] = system: Mature female carp; assay: Gonadotropin release from mature carp in vivo (LH by ELISA); conditions: for LH level: mature female carp just before spawning, injected 20 μg/kg body weight
Experimental: Mature female carp, just before spawning, were injected with NKBa, NKBb and NKF analogues, denoted by SEQ ID NO.44, SEQ ID NO.45 and SEQ ID NO.46, respectively (20 μg/kg body weight). LH levels was measured by specific ELISA, according to Aizen et al. 2012 [33].

[10] = target: T1, NKB receptors (human NKBR, zebrafish Tac3ra, Tac3rb) (Homo sapiens, UniProt P29371); assay: Receptor transactivation assay, statements in words across SRE-Luc and CRE-Luc reporters and receptors; assay type: cell-based; conditions: human NKBR (huNK3R), in both signal transduction systems (SRE-Luc and CRE-Luc)
T1 construct: expressed in transfected cells; host or cells: COS-7
T1 sequence (P29371 1-465): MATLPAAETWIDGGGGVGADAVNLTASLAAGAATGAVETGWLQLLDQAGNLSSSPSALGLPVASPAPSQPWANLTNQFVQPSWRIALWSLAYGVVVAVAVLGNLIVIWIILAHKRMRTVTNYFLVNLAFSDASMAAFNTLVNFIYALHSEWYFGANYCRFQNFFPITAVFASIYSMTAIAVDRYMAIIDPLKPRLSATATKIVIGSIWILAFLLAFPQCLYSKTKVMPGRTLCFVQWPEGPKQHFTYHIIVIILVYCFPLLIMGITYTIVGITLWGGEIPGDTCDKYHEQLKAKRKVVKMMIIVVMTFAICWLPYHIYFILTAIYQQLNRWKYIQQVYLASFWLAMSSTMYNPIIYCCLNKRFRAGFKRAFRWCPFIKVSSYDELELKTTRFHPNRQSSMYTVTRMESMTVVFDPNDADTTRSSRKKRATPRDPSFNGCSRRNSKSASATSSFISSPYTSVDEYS
Experimental: as §1, §2, §4

[11] = system: NKB receptors (human NKBR, zebrafish Tac3ra, Tac3rb); assay: as above; assay type: cell-based
Experimental: as §1, §2, §4

[12] = target: T2, huNK3R (Homo sapiens, UniProt P29371); assay: Receptor transactivation assay, SRE-Luc reporter (PKC activation), COS-7 cells expressing human NK3R; assay type: cell-based
T2 construct: host or cells: COS-7
T2 sequence (P29371 1-465): T1 sequence (P29371 1-465)
Experimental: In order to study the signaling pathways of the novel zebrafish NKBs, the entire coding regions of zftac3ra (denoted by SEQ ID NO:6) or zftac3rb (denoted by SEQ ID NO:7), or the cDNA clone for human NK3R (obtained from the Missouri S&T cDNA Resource Center, were inserted into pcDNA3.1 (Invitrogen). The luciferase assay was conducted according to Biran et al., 2008 [4] COS-7 cells were grown in DMEM supplemented with 10% FBS, 1% glutamine, 100 U/ml penicillin, and 100 mg/ml streptomycin (Biological Industries) under 5% CO2 until confluent. Cotransfection of either pc-zftac3ra, pc-zftac3rb or pc-Htac3r (at 3 μg/plate), a reporter plasmid (at 2 μg/plate), and pCMV-β-galactosidase (at 1 μg/plate) was carried out with FuGENE 6.0 reagent (Roche). The cells were serum starved for 36 h, stimulated with vehicle or various concentrations of either human (Sigma) or zebrafish NKBs for 6 h, and then harvested and analyzed. Lysates prepared from the harvested cells were assayed for both luciferase activity and β-galactosidase activity, which was used as an internal standard to normalize the luciferase activity directed by the test plasmid. Transfection experiments were performed in triplicate with three independently isolated sets.

[13] = Table 5, COS-7 cells, CRE-Luc follows PKA activation, read-out: EC50 CRE-Luc zfTac3rb
[14] = Table 6 (native peptides and analogues), PKA activation, read-out: EC50 using CRE-Luc, zfTac3rb
[15] = Table 5, COS-7 cells, SRE-Luc follows PKC activation, read-out: EC50 SRE-Luc zfTac3rb
[16] = Table 7 (native peptides and analogues), PKC activation, read-out: EC50 using SRE, zfTac3rb
[17] = Table 5, COS-7 cells, SRE-Luc follows PKC activation, read-out: EC50 SRE-Luc zfTac3ra
[18] = Table 7 (native peptides and analogues), PKC activation, read-out: EC50 using SRE, zfTac3ra
[19] = Table 5, COS-7 cells, CRE-Luc follows PKA activation, read-out: EC50 CRE-Luc zfTac3ra
[20] = Table 6 (native peptides and analogues), PKA activation, read-out: EC50 using CRE-Luc, zfTac3ra
[21] = tilapia females two-months old, injected 5 μg/kg BW, listed as NKF analogue

Row | SMILES | LH secretion [2] | EC50 [3, 13] [nM] | EC50 [3, 14] [nM] | EC50 [4, 15] [nM] | EC50 [4, 16] [nM] | EC50 [5, 17] [nM] | EC50 [5, 18] [nM] | EC50 [6, 19] [nM] | EC50 [6, 20] [nM] | release of FSH from tilapia pituitary cells [7] | FSH secretion [8] | LH secretion [8] | also measured
1 | CSCC[C@H](NC(=O)[C@H](CC(C)C)NC(=O)CNC(=O)[C@H](Cc1ccccc1)N(C)C(=O)[C@H](Cc1ccccc1)NC(=O)[C@H](CC(=O)O)NC(=O)CCC(=O)O)C(N)=O [Senktide, Succ-Asp-Phe-N(Me)Phe-Gly-Leu-Met-NH2, reference compound] (Suc-DF[NMeF]GLM-NH2) | less pronounced | 20.1 ± 15.1 | 20.1 ± 15.1 | 2.72 ± 1.54 | 2.72 ± 1.54 | 2.67 ± 1.44 | 2.68 ± 1.44 | 49 ± 14.9 | 49 ± 14.9 | – | – | – | EC50 [1]: > 200 µM
2 | CC[C@H](C)[C@H](NC(=O)[C@H](CC(=O)O)NC(=O)CCC(=O)O)C(=O)N[C@@H](Cc1ccccc1)C(=O)N(C)[C@H](C(=O)NCC(=O)N[C@@H](CC(C)C)C(=O)N[C@@H](CCSC)C(N)=O)C(C)C [zfNKBa-analog, Succ-Asp-Ile-Phe-N(Me)Val-Gly-Leu-Met-NH2] (Suc-DIF[NMeV]GLM-NH2) | – | – | 11.9 ± 16.9 | – | 0.29 | – | 0.15 ± 0.19 | – | 6.94 ± 1.28 | significantly increased | significant increase | significant increase | EC50 ([3]; Table 6 (native peptides and analogues), PKA activation, listed as NKBa-analog, read-out: EC50 using CRE-Luc, zfTac3rb): 11.9 nM; LH level ([9]; listed as NKBa analogue): significant elevation; also recorded: increased the level of LH significantly
3 | CC[C@H](C)[C@H](NC(=O)CNC(=O)[C@@H](NC(=O)[C@@H](N)CO)[C@@H](C)O)C(=O)N[C@@H](CC(N)=O)C(=O)N[C@@H](CCCNC(=N)N)C(=O)N[C@@H](CCC(=O)O)C(=O)N[C@@H](C)C(=O)N[C@@H](Cc1c[nH]cn1)C(=O)N[C@@H](CC(C)C)C(=O)N1CCC[C@H]1C(=O)N[C@@H](Cc1ccccc1)C(=O)N[C@@H](CCCNC(=N)N)C(=O)N1CCC[C@H]1C(=O)N[C@@H](CC(N)=O)C(=O)N[C@@H](CCSC)C(=O)N[C@@H](CC(N)=O)C(=O)N[C@@H](CC(=O)O)C(=O)N[C@H](C(=O)N[C@@H](Cc1ccccc1)C(=O)N[C@H](C(=O)NCC(=O)N[C@@H](CC(C)C)C(=O)N[C@@H](CC(C)C)C(N)=O)C(C)C)[C@@H](C)CC [zfNKBb] (H-STGINREAHLPFRPNMNDIFVGLL-NH2; N-terminus assumed) | significant increase; also recorded: less pronounced | 519 ± 160 | 191 | 33.8 ± 14.7 | 15.3 ± 18.3 | 8.96 ± 1.19 | 6.06 | 237 ± 134 | 99.6 ± 12.9 | – | – | – | potency [10]: relatively low potency; luciferase activity ([11]; both SRE-Luc and CRE-Luc, both signal transduction pathways): less effective than the other forms; activation of the piscine NKB receptors ([11]; zebrafish tac3ra and tac3rb, FIGS. 11A, B, D, E): lowest effect; SRE-driven luciferase activity, response ([12]; COS-7 cells transiently transfected with human NK3R): lowest effect; EC50 ([12]; Table 5, COS-7 cells, SRE-Luc follows PKC activation, mean ± SEM): 204 ± 139 nM; EC50 ([4]; Table 7 (native peptides and analogues), PKC activation, listed as NKBb, read-out: EC50 using SRE, zfTac3rb): 15.3 nM; EC50 ([6]; Table 6 (native peptides and analogues), PKA activation, listed as NKBb, read-out: EC50 using CRE-Luc, zfTac3ra): 99.6 nM
4 | CSCC[C@H](NC(=O)[C@H](CC(C)C)NC(=O)CNC(=O)[C@H](C(C)C)N(C)C(=O)[C@H](Cc1ccccc1)NC(=O)[C@H](CO)NC(=O)[C@H](CC(=O)O)NC(=O)CCC(=O)O)C(N)=O [zfNKF-analog, Succ-Asp-Ser-Phe-N(Me)Val-Gly-Leu-Met-NH2] | – | – | 7.75 | – | 0.54 ± 0.39 | – | 0.31 | – | 9.14 ± 1.27 | significantly increased | significant increase | significant increase | plasma FSH level [8, 21]: significant increase; also recorded: increased significantly; plasma LH level [8, 21]: significant increase; LH level ([9]; listed as NKF analogue): significant elevation; also recorded: increased the level of LH significantly; persistence of the LH effect ([9]; mature female carp, 20 μg/kg body weight, throughout the experiment): remained constant throughout the experiment
